Assay results: patent US9988366B2, “Pesticidally active heterocyclic derivatives with sulphur containing substituents” (Syngenta Participations AG, priority 2014, dated 2018)

Legend:
Type in all cases: in vivo
[1] = tested on: Spodoptera littoralis (Egyptian cotton leaf worm); assay: Example B1: Spodoptera littoralis larvicide, feeding/residual contact activity, preventive (cotton leaf discs); conditions: foliar, 72 h, L1 larvae on sprayed cotton leaf discs, 3 days after treatment, read-out: effect in at least one of the three categories (mortality, anti-feedancy, or growth inhibition)
Source text: Example B1: Activity Against Spodoptera littoralis (Egyptian Cotton Leaf Worm)
(§1) (Larvicide, Feeding/Residual Contact Activity, Preventive)
Cotton leaf discs were placed on agar in a 24-well microtiter plate and sprayed with test solutions. After drying, the leaf discs were infested with five L1 larvae. The samples were checked for mortality, repellent effect, feeding behaviour, and growth regulation 3 days after treatment (DAT). Control of Spodoptera littoralis by a test sample is when at least one of mortality, anti-feedant effect, and growth inhibition is higher than an untreated sample.

[2] = tested on: Plutella xylostella (diamond back moth); assay: Example B3: Plutella xylostella larvicide, feeding/residual contact activity, preventive (artificial diet); conditions: 120 h, L2 larvae on artificial diet, 5 days, read-out: activity (larval mortality, antifeedant and growth regulation)
Protocol: Example B3: Activity Against Plutella xylostella (Diamond Back Moth)
as §1
24-well microtiter plate (MTP) with artificial diet was treated with test solutions by pipetting. After drying, the MTPs were infested with L2 larvae (10-15 per well). After an incubation period of 5 days, samples were checked for larval mortality, antifeedant and growth regulation.

[3] = tested on: Diabrotica balteata (corn root worm); assay: Example B4: Diabrotica balteata larvae L2 on maize sprouts, feeding/contact, preventative; conditions: 120 h, 5 days, read-out: activity (larval mortality and growth regulation)
Protocol: Example B4: Activity Against Diabrotica balteata (Corn Root Worm)
(Larvae L2 on Maize Sprouts, Feeding/Contact, Preventative)
Maize sprouts, placed on an agar layer in 24 well micro titer plates were treated with test solutions by spraying. After drying, the MTPs were infested with L2 larvae (6-10 per well). After an incubation period of 5 days, samples were checked for larval mortality and growth regulation.

[4] = tested on: Myzus persicae (green peach aphid); assay: Example B6: Myzus persicae feeding activity sachet test, mixed population; conditions: 120 h, sucrose solution, 5 days after infestation
Source text: Example B6: Activity Against Myzus persicae (Green Peach Aphid)
(Feeding Activity Sachet Test), Mixed Population
Test compounds were applied by pipette into 24 well plates and mixed with Sucrose solution. The plates were closed with a stretched Parafilm. A plastic stencil with 24 holes is placed onto the plate and infested pea seedlings were placed directly on the Parafilm. The infested plate is closed with a gel blotting paper and another plastic stencil and then turned upside down. 5 days after infestation the samples were checked on mortality. Application rate: 12.5 ppm.

[5] = tested on: Euschistus heros (neotropical brown stink bug); assay: Example B8: Euschistus heros, soybean leaf spray test; conditions: 120 h, N-2 nymphs on soybean leaf, 5 days after infestation
Protocol: Example B8: Activity Against Euschistus heros (Neotropical Brown Stink Bug)
Soybean leaf on agar in 24-well microtiter plates were sprayed with aqueous test solutions prepared from 10,000 ppm DMSO stock solutions. After drying the leaf were infested with N-2 nymphs. The samples were assessed for mortality 5 days after infestation.

[6] = tested on: Myzus persicae (green peach aphid); assay: Example B5: Myzus persicae feeding/residual contact activity, preventive, mixed population (sunflower leaf discs); conditions: foliar, 144 h, mixed population on sunflower leaf discs, 6 DAT
Protocol: Example B5: Activity Against Myzus persicae (Green Peach Aphid)
(Feeding/Residual Contact Activity, Preventive), Mixed Population
Sunflower leaf discs were placed on agar in a 24-well microtiter plate and sprayed with test solutions. After drying, the leaf discs were infested with an aphid population of mixed ages. After an incubation period of 6 DAT, samples were checked for mortality and special effects (e.g. phytotoxicity).

Compound	percent control (mortality, anti-feedancy or growth inhibition) at 400 ppm [1] [%]	mortality at 400 ppm [2] [%]	mortality at 400 ppm [3] [%]	mortality at 12.5 ppm [4] [%]	mortality at 400 ppm [5] [%]	mortality at 400 ppm [6] [%]
CCS(=O)(=O)c1cc(C(F)(F)F)cnc1-c1ncc(-c2ccc(F)c(F)c2)n1C [Compound P43]	≥ 80	> 80	> 80	≥ 80	–	–
CCS(=O)(=O)c1cc(C(F)(F)F)cnc1-c1ncc(-c2cc(C(F)(F)F)cc(Cl)n2)n1C [Compound P51]	≥ 80	> 80	> 80	–	–	–
CCS(=O)(=O)c1cc(C(F)(F)F)cnc1-c1ncc(-c2cc(F)cc(F)c2)n1C [Compound P36]	–	–	> 80	–	–	–
CCS(=O)(=O)c1cc(C(F)(F)F)cnc1-c1ncc(-c2ccnc(Cl)c2)n1C [Compound P28]	≥ 80	> 80	> 80	–	–	–
CCS(=O)(=O)c1cc(C(F)(F)F)cnc1-c1ncc(-c2ccc(Cl)c(F)c2)n1C [Compound P25]	≥ 80	> 80	> 80	≥ 80	> 80	–
CCS(=O)(=O)c1cc(C(F)(F)F)cnc1-c1ncc(-c2cccc(C#N)n2)n1C [Compound P26]	–	–	> 80	–	–	–
CCS(=O)(=O)c1cc(C(F)(F)F)cnc1-c1ncc(-c2ccc(C(F)(F)F)cc2Cl)n1C [Compound P30]	≥ 80	–	> 80	–	–	–
CCS(=O)(=O)c1cc(C(F)(F)F)cnc1-c1ncc(-c2ccc(C(F)(C(F)(F)F)C(F)(F)F)cc2)n1C [Compound P24]	≥ 80	> 80	> 80	–	–	–
CCS(=O)(=O)c1cc(C(F)(F)F)cnc1-c1ncc(-c2ccc(Cl)c(Cl)c2)n1C [Compound P35]	≥ 80	> 80	> 80	–	> 80	–
CCS(=O)(=O)c1cc(C(F)(F)F)cnc1-c1ncc(-c2ccc3c(c2)OC(F)(F)O3)n1C [Compound P48]	≥ 80	> 80	> 80	–	–	–
CCS(=O)(=O)c1cc(C(F)(F)F)cnc1-c1ncc(-c2cccc(C(F)(F)F)n2)n1C [Compound P8]	≥ 80	–	–	–	> 80	> 80
CCS(=O)(=O)c1cc(C(F)(F)F)cnc1-c1ncc(-c2cccc(OC(F)(F)F)c2)n1C [Compound P22]	≥ 80	–	> 80	–	–	–
CCS(=O)(=O)c1cc(C(F)(F)F)cnc1-c1ncc(-c2cc(C(F)(F)F)ccc2F)n1C [Compound P20]	–	–	> 80	–	–	–
CCn1c(-c2ccc(C(F)(F)F)nc2)cnc1-c1ncc(C(F)(F)F)cc1S(=O)(=O)CC [Compound P11]	≥ 80	> 80	> 80	–	–	> 80
CCS(=O)(=O)c1cc(C(F)(F)F)cnc1-c1ncc(-c2ccc(Cl)c(Cl)c2F)n1C [Compound P33]	≥ 80	> 80	> 80	–	–	–
CCS(=O)(=O)c1cc(C(F)(F)F)cnc1-c1ncc(-c2cncc(C(F)(F)F)c2)n1C [Compound P5]	≥ 80	–	–	–	–	> 80
CCS(=O)(=O)c1cc(C(F)(F)F)cnc1-c1ncc(-c2ccc(C#N)nc2)n1C [Compound P47]	≥ 80	–	> 80	–	–	–
CCS(=O)(=O)c1cc(C(F)(F)F)cnc1-c1ncc(-c2cccc(Cl)c2)n1C [Compound P34]	–	–	> 80	–	–	–

Compound	percent control (mortality, anti-feedancy or growth inhibition) at 400 ppm [1] [%]	mortality at 400 ppm [2] [%]	mortality at 400 ppm [3] [%]	mortality at 12.5 ppm [4] [%]	mortality at 400 ppm [5] [%]	mortality at 400 ppm [6] [%]
CCS(=O)(=O)c1cc(C(F)(F)F)cnc1-c1ncc(-c2ccc(C#N)cc2)n1C [Compound P45]	≥ 80	> 80	> 80	≥ 80	–	–
CCS(=O)(=O)c1cc(C(F)(F)F)cnc1-c1ncc(-c2cc(C(F)(F)F)cc(C(F)(F)F)c2)n1C [Compound P52]	≥ 80	> 80	> 80	–	–	–
CCS(=O)(=O)c1cc(C(F)(F)F)cnc1-c1ncc(-c2cccc(C#N)c2)n1C [Compound P41]	≥ 80	–	> 80	≥ 80	–	–
CCS(=O)(=O)c1cc(C(F)(F)F)cnc1-c1nc(C)c(-c2ccc(C(F)(F)F)cc2)n1C [Compound P16]	–	–	> 80	–	–	–
CCS(=O)(=O)c1cc(C(F)(F)F)cnc1-c1ncc(-c2ccc(Cl)c(C(F)(F)F)c2)n1C [Compound P38]	≥ 80	> 80	> 80	≥ 80	> 80	–
CCS(=O)(=O)c1cc(C(F)(F)F)cnc1-c1ncc(-c2cccc(C(F)(F)Cl)c2)n1C [Compound P29]	≥ 80	> 80	> 80	–	> 80	–
CCS(=O)(=O)c1cc(C(F)(F)F)cnc1-c1ncc(-c2ccc(Cl)cc2)n1C [Compound P18]	≥ 80	> 80	> 80	–	–	–
CCS(=O)(=O)c1cc(C(F)(F)F)cnc1-c1ncc(-c2ccc(F)c(Cl)c2)n1C [Compound P53]	≥ 80	> 80	> 80	–	–	–
CCS(=O)(=O)c1cc(C(F)(F)F)cnc1-c1ncc(-c2cccc(SC(F)(F)F)c2)n1C [Compound P13]	≥ 80	–	–	–	–	–
CCS(=O)(=O)c1cc(C(F)(F)F)cnc1-c1ncc(-c2cccc(S(=O)(=O)C(F)(F)F)c2)n1C [Compound P14]	≥ 80	–	–	–	–	> 80
CCS(=O)(=O)c1cc(C(F)(F)F)cnc1-c1nc(Cl)c(-c2ccc(C(F)(F)F)cc2)n1C [Compound P7]	≥ 80	–	> 80	–	–	–
CCS(=O)(=O)c1cc(C(F)(F)F)cnc1-c1ncc(-c2cccc(C(F)(F)F)c2)n1C [Compound P1, 3-ethylsulfonyl-2-[1-methyl-5-[3-(trifluoromethyl)phenyl]imidazol-2-yl]-5-(trifluoromethyl)pyridine]	≥ 80	–	> 80	≥ 80	–	> 80
CCS(=O)(=O)c1cc(C(F)(F)F)cnc1-c1ncc(-c2ccc(C(F)(F)F)c(C(F)(F)F)c2)n1C [Compound P49]	≥ 80	> 80	> 80	–	–	–
CCS(=O)(=O)c1cc(C(F)(F)F)cnc1-c1cnc(-c2cc(Cl)cc(Cl)c2)n1C [Compound P17]	≥ 80	> 80	> 80	–	–	–
CCS(=O)(=O)c1cc(C(F)(F)F)cnc1-c1ncc(-c2cc(C#N)ccc2Cl)n1C [Compound P32]	–	–	> 80	–	–	–
CCS(=O)(=O)c1cc(C(F)(F)F)cnc1-c1ncc(-c2ccc(Cl)nc2)n1C [Compound P23]	≥ 80	> 80	> 80	≥ 80	–	–
CCS(=O)(=O)c1cc(C(F)(F)F)cnc1-c1ncc(-c2cc(F)c(F)c(F)c2)n1C [Compound P44]	≥ 80	> 80	> 80	–	–	–
CCS(=O)(=O)c1cc(C(F)(F)F)cnc1-c1ncc(-c2ccc(OC(F)(F)F)cc2)n1C [Compound P40]	≥ 80	> 80	> 80	≥ 80	> 80	–
